In patent publication US20210301349A1, “COMPOSITIONS AND METHODS FOR TREATING A TUMOR SUPPRESSOR DEFICIENT CANCER” (BETH ISRAEL DEACONESS MEDICAL CENTER, INC., priority 2016, published 2021):
Where “and” joins values, the source holds several entries; their conditions need not be identical. Identical values can stand only once. Entries after “also recorded” stand apart in the source; their conditions may differ.

Assays:
Format in all cases: in vivo, mouse
[1] = tested on: Pten^pc−/−; Zbtb7a^pc−/− prostate tumors; test: Tumor growth by MRI in Pten^pc−/−; Zbtb7a^pc−/− mice under drug or antibody treatment; conditions: for tumor volume: Pten-Zbtb7a, individual mice
Protocol: (§1) Mice were allocated at random to experimental groups and studies were performed in an unblended manner. For treatment with the CXCR2 antagonist, SB225002 (Cayman Chemical #13336) was dissolved in DMSO (10 mg/ml) and diluted in vehicle (0.9% NaCl, 0.3% Tween 80) for in vivo administration. Mice (4 months of age) were treated daily for 10 days by intraperitoneal injection (5 mg/kg) and prostate tumor tissue (anterior lobes) was subjected to Flow Cytometry and histological analysis. For MRI analysis, mice (4 months of age) were treated daily for 21 days (Pten^pc−/−; Zbtb7a^pc−/−), for 14 days (Pten^pc−/−; Trp53^pc−/−) or for 14 days (Pten^pc−/−; Pml^pc−/−) by intraperitoneal injection (5 mg/kg). For depletion of Gr-1+/CD11b+ cells, Ly6G-depletion antibody (1A8, BioXcell) and control Rat IgG2a antibody (BioXcell) were diluted in phosphate-buffered saline (PBS) for in vivo administration. Mice (4 months of age) were treated every other day for 10 days by intraperitoneal injection (200-300 μg/mouse). InVivoMAb anti-mouse Ly6G/Ly6C (Gr-1) antibody, clone RB6-8C5 (BE0075, BioXcell), and control Rat IgG2b antibody (BE0090, BioXcell) were diluted in PBS and Pten^pc−/−; Trp53^pc−/− mice were treated every other day for 14 days by intraperitoneal injection (200 μg/mouse). For neutralization of CXCL5, anti-Mouse CXCL5 antibody (Leinco Technologies) and control Rat IgG2a antibody (BioXcell) were diluted in PBS and injected every other day for 21 days by intraperitoneal injection (20 μg/mouse). Tumor volume quantification was performed by using VivoQuant and Image J software. All mouse prostate MRI imaging analysis was performed at Small Animal Imaging Core at BIDMC and acquired on an ASPECT Model M2 1T tabletop scanner.

[2] = tested on: Pten^pc−/−; Trp53^pc−/− prostate tumors; test: Tumor growth by MRI in Pten^pc−/−; Trp53^pc−/− mice under drug or antibody treatment; conditions: for tumor volume: individual mice
Protocol: as §1

[3] = tested on: Pten^pc−/−; Pml^pc−/− prostate tumors; test: Tumor growth by MRI in Pten^pc−/−; Pml^pc−/− mice under CXCR2 antagonist treatment; conditions: for tumor volume: Pten-Pml, individual mice; for tumor growth: Pten^pc−/−, Pml^pc−/− mice, versus vehicle
Protocol: as §1

[4] = tested on: Pten^pc−/−; Zbtb7a^pc−/− prostate tumors; test: Flow cytometry of immune infiltrate in treated Pten^pc−/−; Zbtb7a^pc−/− prostate tumors; conditions: Zbtb7a^pc−/− prostate tumors after treatment
Protocol: (§2) Mice were allocated at random to experimental groups and studies were performed in an unblended manner. For treatment with the CXCR2 antagonist, SB225002 (Cayman Chemical #13336) was dissolved in DMSO (10 mg/ml) and diluted in vehicle (0.9% NaCl, 0.3% Tween 80) for in vivo administration. Mice (4 months of age) were treated daily for 10 days by intraperitoneal injection (5 mg/kg) and prostate tumor tissue (anterior lobes) was subjected to Flow Cytometry and histological analysis. For MRI analysis, mice (4 months of age) were treated daily for 21 days (Pten^pc−/−; Zbtb7a^pc−/−), for 14 days (Pten^pc−/−; Trp53^pc−/−) or for 14 days (Pten^pc−/−; Pml^pc−/−) by intraperitoneal injection (5 mg/kg). For depletion of Gr-1+/CD11b+ cells, Ly6G-depletion antibody (1A8, BioXcell) and control Rat IgG2a antibody (BioXcell) were diluted in phosphate-buffered saline (PBS) for in vivo administration. Mice (4 months of age) were treated every other day for 10 days by intraperitoneal injection (200-300 μg/mouse). […] Tumor volume quantification was performed by using VivoQuant and Image J software. […]
(§3) For Flow Cytometry, spleen and lymph node single cell suspensions were prepared by mashing the tissue in 2% FBS/PBS. […] All staining mixtures were analyzed on a BD LSR II flow cytometer (Becton Dickinson). Resulting profiles were further processed and analyzed using the FlowJo 8.7 software.

[5] = tested on: Pten^pc−/−; Pml^pc−/− prostate tumors; test: Flow cytometry of immune infiltrate in treated Pten^pc−/−; Pml^pc−/− prostate tumors; conditions: Pml^pc−/− prostate tumors after treatment
Protocol: as §2, §3

[6] = CXCR2i (SB225002 5 mg/kg i.p. daily), row 0 = day 0 baseline, MRI

## O=C(Nc1ccc([N+](=O)[O-])cc1O)Nc1ccccc1Br [SB225002]
[1]; [6]
  tumor volume: 54.248 mm3 and 79.3701 mm3 and 59.2774 mm3
[1]; CXCR2i, row 1 (weekly MRI)
  tumor volume: 44.3115 mm3 and 67.9688 mm3 and 65.0879 mm3
[1]; CXCR2i, row 2 (weekly MRI)
  tumor volume: 41.1865 mm3 and 68.9697 mm3 and 58.6914 mm3
[1]; CXCR2i, row 3 (weekly MRI, 3 weeks on treatment)
  tumor volume: 42.1142 mm3 and 71.3379 mm3 and 66.0889 mm3
[1]; Pten^pc−/−, Zbtb7a^pc−/− mice, versus vehicle or control IgG
  tumor growth: significantly suppressed the tumor growth; also recorded: significant inhibition of tumor growth
[2]; Pten-Trp53, CXCR2i (SB225002 5 mg/kg i.p. daily), row 0 = day 0 baseline, MRI
  tumor volume: 67.016 mm3 and 32.276 mm3 and 66.382 mm3
[2]; Pten-Trp53, CXCR2i, row 1 (weekly MRI)
  tumor volume: 53.809 mm3 and 31.739 mm3 and 68.018 mm3
[2]; Pten-Trp53, CXCR2i, row 2 (weekly MRI, 2 weeks on treatment)
  tumor volume: 51.807 mm3 and 39.795 mm3 and 63.477 mm3
[2]; Pten^pc−/−, Trp53^pc−/− mice, versus vehicle or control IgG
  tumor growth: significantly suppressed the tumor growth; also recorded: significant inhibition of tumor growth
[3]; [6]
  tumor volume: 45.996 mm3 and 37.426 mm3
[3]; CXCR2i, row 1 (weekly MRI)
  tumor volume: 53.662 mm3 and 43.164 mm3
[3]; CXCR2i, row 2 (weekly MRI, 2 weeks on treatment)
  tumor volume: 56.567 mm3 and 45.972 mm3
[3]
  tumor growth: did not show any significant response
[3]; listed as CXCR2i
  tumor growth: did not respond
[4]
  intra-tumoral Gr-1+/CD11b+ cells: decrease of Gr-1+/CD11b+ cells
[5]
  intra-tumoral Gr-1+/CD11b+ cells: decrease of Gr-1+/CD11b+ cells
